# Where two headings read alike, the source gives them in different places.
# Experiment: Water solubility at pH 7 (HPLC-MS)
# Type: physicochemical
# Conditions: thermodynamic from solid
# Description: In another preferred embodiment of the invention the insecticidal active ingredient—matrix particles comprise one insecticidal active ingredient with the above indicated physicochemical properties. The melting points according to the invention are measured under standard conditions (1 atmosphere). Water solubility are indicated in percentage referring to the quotient of (g) gram insecticidal active ingredient/100 ml water. Water solubility is preferably measured with liquid chromatography e.g. with a HPLC-MS system (at 20° C., 1 atmosphere and pH 7, see also example 1 as a reference).
# The reported water solubilities as shown in table 1 are determined as follows: Preparation of calibration standards: A 1000 ppm solution of the analyte in acetonitrile is prepared and from this at least three calibration points are obtained by dilution with acetonitrile going down to 0.01 mg/L, if needed. Sample Preparation: Two cavities of a deepwell are filled each with about 0.6 mg of homogenized sample and 500 μL of a pH 7 phosphate buffer is added. A glass pearl is added to each cavity, the deepwell is sealed and shaken for at least 24 h at 1600 rpm at 23° C. After the shaking procedure the solution is filtered. Aliquots of the filtrates are analysed via a HPLC-MS system with DAD and MS detection. The peak areas of all selected single DAD and ion traces are taken for the calculations. The calculation is done by external calibration against the areas of the standard samples (linear regression). The mean of all calculated values gives the water solubility of the active ingredient.
# [1] = aqueous buffer, pH 7 phosphate buffer, shaken at least 24 h at 23° C., technical grade active ingredient, read-out: water solubility at pH 7
SMILES,solubility [1] [µg/mL],"solubility (23 °C, pH 7, aqueous buffer) [µg/mL]"
"CN(C(=O)c1cc(-c2cnn(-c3c(Cl)cc(C(F)(C(F)(F)F)C(F)(F)F)cc3Cl)c2)cnc1Cl)C1CC1 [2-chloro-N-cyclopropyl-5-{1-[2,6-dichloro-4-(1,1,1,2,3,3,3-heptafluoropropan-2-yl)phenyl]-1H-pyrazol-4-yl}-N-methylnicotinamide]",< 0.01,
"CCN1OC[C@@H](NC(=O)c2ccc(C3=NO[C@@](c4cc(Cl)c(F)c(Cl)c4)(C(F)(F)F)C3)cc2C)C1=O [4-[(5S)-5-(3,5-dichloro-4-fluorophenyl)-5-(trifluoromethyl)-4,5-dihydro-1,2-oxazol-3-yl]-N-[(4R)-2-ethyl-3-oxo-1,2-oxazolidin-4-yl]-2-methylbenzamide]",,< 0.01
"CN(C(=O)c1ccccc1)c1cccc(C(=O)Nc2c(Br)cc(C(F)(C(F)(F)F)C(F)(F)F)cc2C(F)(F)F)c1F [broflanilide, 3-[benzoyl(methyl)amino]-N-[2-bromo-4-(1,1,1,2,3,3,3-heptafluoropropan-2-yl)-6-(trifluoromethyl)phenyl]-2-fluorobenzamide, reference compound]",< 0.01,

# Source: patent US12285011B2, “Insecticidal formulation for vector and pest control with increased contact efficacy” (DISCOVERY PURCHASER CORPORATION, priority 2018, dated 2025)
